Structures are written as SMILES.

The values below come from US20220304970A1, “LIPOSOMIAL EYE DROPS SOLUTION AND USES THEREOF FOR THE TREATMENT OF DRY EYE SYNDROME” (Dr. Rolf Lambert Pharma-Consulting GmbH, priority 2018, published 2022).

This series is described as follows: Stability to steam sterilization. The conditions noted are these: 121° C. at 1·10^5 Pa (1 atm) for 15 minutes.

For `CCCCCCCCCCCCCCCC(=O)OC/C=C(C)/C=C/C=C(C)/C=C/C1=C(C)CCCC1(C)C` [Vitamin A Palmitate, Retinyl Palmitate], the stability to sterilization entry is given as “not stable”.
